Source: PubChem BioAssay (NCI)
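Where inhibition never reached the appropriate level, the endpoint shown equals the highest concentration tested. Otherwise, values were interpolated linearly from a five-concentration, 48-hour dose response in 96-well plates. The concentration for full growth arrest is given as TGI.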

System: COLO 205 colon
Test: DTP human tumour cell line panel, 48 h

Row | Compound | TGI [µM]
1 | O=C(O)c1n[nH]nc1Cl | > 100
2 | CN(c1ccc(Cl)cc1)S(=O)(=O)c1cccc([N+](=O)[O-])c1 | > 100
3 | NC(Cc1cccc([N+](=O)[O-])c1)C(=O)O (stereo not given) | > 100
4 | Clc1c(Cl)c(Cl)c2nn(C3CCCO3)nc2c1Cl (stereo not given) | > 100
5 | CN(c1ccc(Cl)cc1)S(=O)(=O)c1ccc([N+](=O)[O-])cc1 | > 100
6 | CS(=O)(=O)Nc1ccc(N2Cc3cnc4ccc5[nH]ccc2c5c34)cc1 | 32.2
7 | CC(C)(C)C(=O)OCC1CCC[N+]2(C)CCCCC12 (stereo not given) | > 100
8 | CCn1c(-c2cc(OC)cc(OC)c2)nc2c1C(=O)c1ccccc1C2=O | > 100
9 | CN1C(=O)N/C(=C\c2ccc(S(=O)(=O)NN)cc2)C1=O | > 100
10 | Cc1cc(N(CCC#N)CCC#N)ccc1/C(N=Nc1ccc([N+](=O)[O-])cc1)=N\NC(=O)c1cc(Cl)ccc1C(=O)c1ccccc1 | 40.6
11 | O=C1N=c2ccccc2=C1c1c(O)[nH]c2ccccc12 | > 100
12 | CCCCCCCCCCCCCCCCCCNc1ccn(C2OC(COP(=O)(O)OCC3OC(n4cc(C)c(=O)[nH]c4=O)CC3O)C(O)C2O)c(=O)n1 (stereo not given) | 28.1
13 | CC(=O)OCc1cc(CCC(=O)NCCNc2c3ccccc3nc3ccccc23)cc(COC(C)=O)c1O[Si](C)(C)C(C)(C)C | 15.9
14 | NC(N)=NCCN=C(N)N | > 100
15 | CC[N+](CC)(CCNCC(N)=O)CC(N)=O | > 10
16 | COc1ccc(N=C2SC(=N/N=c3\sc4ccccc4n3C)SC2=Nc2ccc(OC)cc2)cc1 | > 100
17 | CCOC(=O)C1=CC(C)(C(=O)OCC)Nc2c(nc(OC)n(C)c2=O)N1 (stereo not given) | > 10
18 | Cc1ccc(/C=N/n2c(=O)[nH]c3ccccc3c2=O)cc1 | > 100
19 | S=C(c1c[nH]c2ccccc12)N1CCOCC1 | > 100
20 | Cc1nc2ccccc2c(=O)n1NC(=O)c1ccc(CS)cc1 | 62.9
21 | CNc1ccc(OC)cc1S(=O)(=O)c1ccccc1[N+](=O)[O-] | > 100
22 | O=[N+]([O-])c1ccc(/C=N/n2c(CO)nc3ccccc32)o1 | 10.6

System: HCC-2998 colon
Test: DTP human tumour cell line panel, 48 h

Row | Compound | TGI [µM]
23 | CC1CC(N)=Nc2ccccc2N1 (stereo not given) | > 100
24 | CC(=O)Nc1cc(C(=O)Nc2cc(C(=O)N3CC(CCl)c4c3cc(N)c3ccccc43)nn2C)nn1C (stereo not given) | 0.491
25 | CC(C)(Cc1ccccc1)NC1=NCCO1 | > 100
26 | O=C(O)c1n[nH]nc1Cl | > 100
27 | CN(c1ccc(Cl)cc1)S(=O)(=O)c1cccc([N+](=O)[O-])c1 | > 100
28 | NC(Cc1cccc([N+](=O)[O-])c1)C(=O)O (stereo not given) | > 100
29 | Clc1c(Cl)c(Cl)c2nn(C3CCCO3)nc2c1Cl (stereo not given) | > 100
30 | CN(c1ccc(Cl)cc1)S(=O)(=O)c1ccc([N+](=O)[O-])cc1 | > 100
31 | CC(C)(C)C(=O)OCC1CCC[N+]2(C)CCCCC12 (stereo not given) | > 100
32 | CCn1c(-c2cc(OC)cc(OC)c2)nc2c1C(=O)c1ccccc1C2=O | > 100
33 | CN1C(=O)N/C(=C\c2ccc(S(=O)(=O)NN)cc2)C1=O | > 100
34 | Cc1cc(N(CCC#N)CCC#N)ccc1/C(N=Nc1ccc([N+](=O)[O-])cc1)=N\NC(=O)c1cc(Cl)ccc1C(=O)c1ccccc1 | 30.3
35 | O=C1N=c2ccccc2=C1c1c(O)[nH]c2ccccc12 | 63.5
36 | CCCCCCCCCCCCCCCCCCNc1ccn(C2OC(COP(=O)(O)OCC3OC(n4cc(C)c(=O)[nH]c4=O)CC3O)C(O)C2O)c(=O)n1 (stereo not given) | 32.6
37 | NC(N)=NCCN=C(N)N | > 100
38 | CC[N+](CC)(CCNCC(N)=O)CC(N)=O | > 10
39 | COc1ccc(N=C2SC(=N/N=c3\sc4ccccc4n3C)SC2=Nc2ccc(OC)cc2)cc1 | > 100
40 | CCOC(=O)C1=CC(C)(C(=O)OCC)Nc2c(nc(OC)n(C)c2=O)N1 (stereo not given) | > 10
41 | Cc1nc2ccccc2c(=O)n1NC(=O)c1ccc(CS)cc1 | 45.8
42 | CNc1ccc(OC)cc1S(=O)(=O)c1ccccc1[N+](=O)[O-] | > 100

System: HOP-62 NSCLC
Test: DTP human tumour cell line panel, 48 h

Row | Compound | TGI [µM]
43 | CC1CC(N)=Nc2ccccc2N1 (stereo not given) | > 100
44 | CC(=O)Nc1cc(C(=O)Nc2cc(C(=O)N3CC(CCl)c4c3cc(N)c3ccccc43)nn2C)nn1C (stereo not given) | > 100
45 | O=C(O)c1n[nH]nc1Cl | > 100
46 | CN(c1ccc(Cl)cc1)S(=O)(=O)c1cccc([N+](=O)[O-])c1 | > 100
47 | NC(Cc1cccc([N+](=O)[O-])c1)C(=O)O (stereo not given) | > 100
48 | Clc1c(Cl)c(Cl)c2nn(C3CCCO3)nc2c1Cl (stereo not given) | > 100
49 | CN(c1ccc(Cl)cc1)S(=O)(=O)c1ccc([N+](=O)[O-])cc1 | > 100
50 | CS(=O)(=O)Nc1ccc(N2Cc3cnc4ccc5[nH]ccc2c5c34)cc1 | 59.2
51 | CC(C)(C)C(=O)OCC1CCC[N+]2(C)CCCCC12 (stereo not given) | > 100
52 | CCn1c(-c2cc(OC)cc(OC)c2)nc2c1C(=O)c1ccccc1C2=O | > 100
53 | CN1C(=O)N/C(=C\c2ccc(S(=O)(=O)NN)cc2)C1=O | > 100
54 | Cc1cc(N(CCC#N)CCC#N)ccc1/C(N=Nc1ccc([N+](=O)[O-])cc1)=N\NC(=O)c1cc(Cl)ccc1C(=O)c1ccccc1 | > 100
55 | O=C1N=c2ccccc2=C1c1c(O)[nH]c2ccccc12 | > 100
56 | CCCCCCCCCCCCCCCCCCNc1ccn(C2OC(COP(=O)(O)OCC3OC(n4cc(C)c(=O)[nH]c4=O)CC3O)C(O)C2O)c(=O)n1 (stereo not given) | 32.4
57 | CC(=O)OCc1cc(CCC(=O)NCCNc2c3ccccc3nc3ccccc23)cc(COC(C)=O)c1O[Si](C)(C)C(C)(C)C | 32.5
58 | NC(N)=NCCN=C(N)N | > 100
59 | CC[N+](CC)(CCNCC(N)=O)CC(N)=O | > 10
60 | COc1ccc(N=C2SC(=N/N=c3\sc4ccccc4n3C)SC2=Nc2ccc(OC)cc2)cc1 | > 100
61 | CCOC(=O)C1=CC(C)(C(=O)OCC)Nc2c(nc(OC)n(C)c2=O)N1 (stereo not given) | > 10
62 | Cc1ccc(/C=N/n2c(=O)[nH]c3ccccc3c2=O)cc1 | > 100
63 | S=C(c1c[nH]c2ccccc12)N1CCOCC1 | > 100
64 | Cc1nc2ccccc2c(=O)n1NC(=O)c1ccc(CS)cc1 | 42.4
65 | CNc1ccc(OC)cc1S(=O)(=O)c1ccccc1[N+](=O)[O-] | > 100
66 | O=[N+]([O-])c1ccc(/C=N/n2c(CO)nc3ccccc32)o1 | 28.7

System: HS 578T breast
Test: DTP human tumour cell line panel, 48 h

Row | Compound | TGI [µM]
67 | CC1CC(N)=Nc2ccccc2N1 (stereo not given) | > 100
68 | CC(=O)Nc1cc(C(=O)Nc2cc(C(=O)N3CC(CCl)c4c3cc(N)c3ccccc43)nn2C)nn1C (stereo not given) | 1.55
69 | CC(C)(Cc1ccccc1)NC1=NCCO1 | > 100
70 | O=C(O)c1n[nH]nc1Cl | > 100
71 | CN(c1ccc(Cl)cc1)S(=O)(=O)c1cccc([N+](=O)[O-])c1 | > 100
72 | NC(Cc1cccc([N+](=O)[O-])c1)C(=O)O (stereo not given) | > 100
73 | Clc1c(Cl)c(Cl)c2nn(C3CCCO3)nc2c1Cl (stereo not given) | 49.5
74 | CN(c1ccc(Cl)cc1)S(=O)(=O)c1ccc([N+](=O)[O-])cc1 | > 100
75 | CS(=O)(=O)Nc1ccc(N2Cc3cnc4ccc5[nH]ccc2c5c34)cc1 | > 100
76 | CC(C)(C)C(=O)OCC1CCC[N+]2(C)CCCCC12 (stereo not given) | > 100
77 | CCn1c(-c2cc(OC)cc(OC)c2)nc2c1C(=O)c1ccccc1C2=O | > 100
78 | CN1C(=O)N/C(=C\c2ccc(S(=O)(=O)NN)cc2)C1=O | > 100
79 | Cc1cc(N(CCC#N)CCC#N)ccc1/C(N=Nc1ccc([N+](=O)[O-])cc1)=N\NC(=O)c1cc(Cl)ccc1C(=O)c1ccccc1 | 68
80 | O=C1N=c2ccccc2=C1c1c(O)[nH]c2ccccc12 | > 100
81 | CCCCCCCCCCCCCCCCCCNc1ccn(C2OC(COP(=O)(O)OCC3OC(n4cc(C)c(=O)[nH]c4=O)CC3O)C(O)C2O)c(=O)n1 (stereo not given) | 42.4
82 | CC(=O)OCc1cc(CCC(=O)NCCNc2c3ccccc3nc3ccccc23)cc(COC(C)=O)c1O[Si](C)(C)C(C)(C)C | 13.9
83 | NC(N)=NCCN=C(N)N | > 100
84 | CC[N+](CC)(CCNCC(N)=O)CC(N)=O | > 10
85 | COc1ccc(N=C2SC(=N/N=c3\sc4ccccc4n3C)SC2=Nc2ccc(OC)cc2)cc1 | > 100
86 | CCOC(=O)C1=CC(C)(C(=O)OCC)Nc2c(nc(OC)n(C)c2=O)N1 (stereo not given) | > 10
87 | Cc1ccc(/C=N/n2c(=O)[nH]c3ccccc3c2=O)cc1 | > 100
88 | S=C(c1c[nH]c2ccccc12)N1CCOCC1 | > 100
89 | Cc1nc2ccccc2c(=O)n1NC(=O)c1ccc(CS)cc1 | 95.4
90 | CNc1ccc(OC)cc1S(=O)(=O)c1ccccc1[N+](=O)[O-] | > 100
91 | O=[N+]([O-])c1ccc(/C=N/n2c(CO)nc3ccccc32)o1 | 35.6

System: IGROV1 ovarian
Test: DTP human tumour cell line panel, 48 h

Row | Compound | TGI [µM]
92 | CC1CC(N)=Nc2ccccc2N1 (stereo not given) | > 100
93 | CC(=O)Nc1cc(C(=O)Nc2cc(C(=O)N3CC(CCl)c4c3cc(N)c3ccccc43)nn2C)nn1C (stereo not given) | 0.851
94 | CC(C)(Cc1ccccc1)NC1=NCCO1 | > 100
95 | O=C(O)c1n[nH]nc1Cl | > 100
96 | CN(c1ccc(Cl)cc1)S(=O)(=O)c1cccc([N+](=O)[O-])c1 | > 100
97 | NC(Cc1cccc([N+](=O)[O-])c1)C(=O)O (stereo not given) | > 100
98 | Clc1c(Cl)c(Cl)c2nn(C3CCCO3)nc2c1Cl (stereo not given) | > 100
99 | CN(c1ccc(Cl)cc1)S(=O)(=O)c1ccc([N+](=O)[O-])cc1 | > 100
100 | CS(=O)(=O)Nc1ccc(N2Cc3cnc4ccc5[nH]ccc2c5c34)cc1 | 79.9
101 | CC(C)(C)C(=O)OCC1CCC[N+]2(C)CCCCC12 (stereo not given) | > 100
102 | CCn1c(-c2cc(OC)cc(OC)c2)nc2c1C(=O)c1ccccc1C2=O | > 100
103 | CN1C(=O)N/C(=C\c2ccc(S(=O)(=O)NN)cc2)C1=O | > 100
104 | Cc1cc(N(CCC#N)CCC#N)ccc1/C(N=Nc1ccc([N+](=O)[O-])cc1)=N\NC(=O)c1cc(Cl)ccc1C(=O)c1ccccc1 | 17.9
105 | O=C1N=c2ccccc2=C1c1c(O)[nH]c2ccccc12 | > 100
106 | CC(=O)OCc1cc(CCC(=O)NCCNc2c3ccccc3nc3ccccc23)cc(COC(C)=O)c1O[Si](C)(C)C(C)(C)C | 27.6
107 | NC(N)=NCCN=C(N)N | > 100
108 | CC[N+](CC)(CCNCC(N)=O)CC(N)=O | > 10
109 | COc1ccc(N=C2SC(=N/N=c3\sc4ccccc4n3C)SC2=Nc2ccc(OC)cc2)cc1 | > 100
110 | CCOC(=O)C1=CC(C)(C(=O)OCC)Nc2c(nc(OC)n(C)c2=O)N1 (stereo not given) | > 10
111 | Cc1ccc(/C=N/n2c(=O)[nH]c3ccccc3c2=O)cc1 | > 100
112 | S=C(c1c[nH]c2ccccc12)N1CCOCC1 | > 100
113 | Cc1nc2ccccc2c(=O)n1NC(=O)c1ccc(CS)cc1 | 27.2
114 | CNc1ccc(OC)cc1S(=O)(=O)c1ccccc1[N+](=O)[O-] | > 100
115 | O=[N+]([O-])c1ccc(/C=N/n2c(CO)nc3ccccc32)o1 | 6.09
